pIC50: −log10 of the molar value. Like-named read-outs stand apart in the source and are kept apart here.
What was measured:
EGFR wild type (EGFR WT) = EGFR wild type (EGFR WT) (Homo sapiens (Human), UniProt P00533); assay: Cellular phosphorylation assay, EGF-stimulated EGFR phosphorylation in engineered NIH 3T3 cells, Phospho-EGFR DuoSet IC ELISA, Assay 5; assay type: cell-based
Protocol: NIH 3T3 cells were engineered to express EGFR wild type (EGFR WT; Assay 5, no footnote) with constructs obtained from GenScript and grown in DMEM supplemented with 10% fetal bovine serum and 15 μg/ml blasticidin. Cells were plated in 96-well plates at 20,000 cells/well and allowed to attach overnight at 37° C./5% CO2. Serially diluted compounds were added to the plates for 1 hour at 37° C./5% CO2. EGFR WT cells were stimulated with 100 ng/ml rEGF for an additional 10 minutes at 37° C./5% CO2. After compound incubation, medium was removed from the cells, which were then lysed in 100 μL/well lysis buffer according to the manufacturer's protocol (R&D Systems, DYC1095, Human Phospho-EGFR DuoSet IC ELISA). Same protocol was followed to determine the total levels of phospho-EGFR by measuring the optical density of each well using a VersaMax microplate reader. Curves were then generated and IC50 values calculated.

EGFR = EGFR (Homo sapiens (Human), UniProt P00533); assay: ErbB enzyme assay (CisBio HTRF KinEASE-TK), Assay 3; assay type: biochemical
Sequence of EGFR (P00533 25-1210): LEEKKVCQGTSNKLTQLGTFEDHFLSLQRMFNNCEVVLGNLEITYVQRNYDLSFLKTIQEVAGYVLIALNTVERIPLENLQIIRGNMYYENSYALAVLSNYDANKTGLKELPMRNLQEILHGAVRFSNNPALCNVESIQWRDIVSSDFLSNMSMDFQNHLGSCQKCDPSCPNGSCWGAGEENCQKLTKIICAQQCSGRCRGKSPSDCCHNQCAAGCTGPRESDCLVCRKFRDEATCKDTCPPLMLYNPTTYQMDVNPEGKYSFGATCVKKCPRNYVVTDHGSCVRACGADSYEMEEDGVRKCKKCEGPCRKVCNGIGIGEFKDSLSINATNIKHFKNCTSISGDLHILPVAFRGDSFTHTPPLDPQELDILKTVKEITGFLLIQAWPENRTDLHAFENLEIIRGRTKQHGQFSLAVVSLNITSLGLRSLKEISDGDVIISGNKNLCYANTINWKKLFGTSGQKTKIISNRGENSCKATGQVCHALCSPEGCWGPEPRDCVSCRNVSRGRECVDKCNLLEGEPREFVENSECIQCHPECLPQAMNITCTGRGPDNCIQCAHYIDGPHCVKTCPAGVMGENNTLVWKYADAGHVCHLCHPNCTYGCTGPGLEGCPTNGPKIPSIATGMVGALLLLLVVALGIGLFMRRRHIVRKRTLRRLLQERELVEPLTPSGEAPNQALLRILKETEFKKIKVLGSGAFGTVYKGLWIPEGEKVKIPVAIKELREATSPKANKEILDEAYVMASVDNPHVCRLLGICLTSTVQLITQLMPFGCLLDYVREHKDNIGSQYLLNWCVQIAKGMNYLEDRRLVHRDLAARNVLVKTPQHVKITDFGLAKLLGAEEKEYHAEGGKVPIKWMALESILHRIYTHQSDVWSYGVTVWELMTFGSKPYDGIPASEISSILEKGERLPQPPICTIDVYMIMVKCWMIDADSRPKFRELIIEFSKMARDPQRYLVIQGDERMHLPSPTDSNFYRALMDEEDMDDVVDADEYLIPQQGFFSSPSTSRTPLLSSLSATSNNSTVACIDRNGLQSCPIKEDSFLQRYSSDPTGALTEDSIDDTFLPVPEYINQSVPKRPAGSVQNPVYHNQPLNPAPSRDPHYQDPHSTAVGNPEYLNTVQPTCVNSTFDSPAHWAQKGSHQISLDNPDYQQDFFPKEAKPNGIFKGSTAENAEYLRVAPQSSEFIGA
Outline: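 Inhibition is measured as reduced peptide phosphorylation by HTRF KinEASE-TK at 1 mM ATP and 250 nM substrate, 30 min at 22 °C. Values are IC50s from a 4-parameter logistic fit.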

ErbB2 WT = ErbB2 WT (Homo sapiens (Human), UniProt P04626); assay: ErbB enzyme assay (CisBio HTRF KinEASE-TK), Assay 2; assay type: biochemical
Sequence of ErbB2 WT (P04626 23-1255): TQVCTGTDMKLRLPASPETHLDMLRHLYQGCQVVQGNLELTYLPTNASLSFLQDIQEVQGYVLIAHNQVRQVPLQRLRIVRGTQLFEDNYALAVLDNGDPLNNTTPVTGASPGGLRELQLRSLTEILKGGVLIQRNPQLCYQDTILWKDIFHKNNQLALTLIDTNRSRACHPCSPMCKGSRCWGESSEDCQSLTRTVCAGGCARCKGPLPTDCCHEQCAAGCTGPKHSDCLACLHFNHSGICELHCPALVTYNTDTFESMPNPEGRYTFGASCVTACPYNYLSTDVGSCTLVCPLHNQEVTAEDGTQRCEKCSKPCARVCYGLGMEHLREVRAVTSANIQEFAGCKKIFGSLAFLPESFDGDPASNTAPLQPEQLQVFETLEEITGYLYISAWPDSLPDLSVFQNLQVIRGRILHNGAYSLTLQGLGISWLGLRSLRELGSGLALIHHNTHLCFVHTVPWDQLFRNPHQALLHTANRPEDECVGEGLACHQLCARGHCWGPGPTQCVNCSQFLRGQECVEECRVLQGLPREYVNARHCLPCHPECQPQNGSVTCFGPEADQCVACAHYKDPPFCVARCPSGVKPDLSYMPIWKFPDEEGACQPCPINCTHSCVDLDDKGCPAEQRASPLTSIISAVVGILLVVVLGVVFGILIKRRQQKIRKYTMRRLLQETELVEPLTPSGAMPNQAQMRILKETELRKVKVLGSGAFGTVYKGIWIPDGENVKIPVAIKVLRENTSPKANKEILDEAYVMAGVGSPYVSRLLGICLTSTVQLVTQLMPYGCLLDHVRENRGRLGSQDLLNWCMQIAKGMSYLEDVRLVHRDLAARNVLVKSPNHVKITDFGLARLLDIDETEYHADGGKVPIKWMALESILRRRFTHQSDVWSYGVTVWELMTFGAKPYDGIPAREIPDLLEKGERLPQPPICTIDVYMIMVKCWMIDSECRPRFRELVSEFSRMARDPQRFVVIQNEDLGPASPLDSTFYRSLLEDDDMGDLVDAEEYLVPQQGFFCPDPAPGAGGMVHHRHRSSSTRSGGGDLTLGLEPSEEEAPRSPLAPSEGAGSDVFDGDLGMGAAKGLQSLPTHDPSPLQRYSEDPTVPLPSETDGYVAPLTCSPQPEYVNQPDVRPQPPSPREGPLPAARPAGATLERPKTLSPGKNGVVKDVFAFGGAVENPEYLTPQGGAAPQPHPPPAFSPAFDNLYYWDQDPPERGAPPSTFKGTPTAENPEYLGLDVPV
Outline: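 ErbB2 phosphorylates 250 nM biotin-TK substrate at 1 mM ATP in 25 mM HEPES pH 7.4, 10 mM MgCl2, 0.01% Triton X-100 and 2% DMSO, for 30 min at 22 °C. Product is detected by HTRF with Sa-XL665 and TK-Ab-Cryptate. Percent of control is set by DMSO-only wells and pre-quenched wells.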

[1] = target: ErbB2 insYVMA (HER2-YVMA, SEQ ID NO: 2) (Homo sapiens, UniProt P04626, INS775YVMA/P1170A); assay: biochemical; settings: ErbB2 insYVMA enzyme assay; for pIC50: read-out: Assay 1 IC50
[2] = target: ErbB2 with Exon 20 YVMA insertion (HER2-YVMA) (Homo sapiens (Human), UniProt P04626, INS775YVMA); assay: Cellular phosphorylation assay, constitutive ErbB2 phosphorylation (Y1196) in engineered NIH 3T3 cells, Assay 4; assay type: cell-based
Sequence of ErbB2 with Exon 20 YVMA insertion (HER2-YVMA) (P04626 other isoform, or with tags, fused parts or gaps ins YVMA behind 775): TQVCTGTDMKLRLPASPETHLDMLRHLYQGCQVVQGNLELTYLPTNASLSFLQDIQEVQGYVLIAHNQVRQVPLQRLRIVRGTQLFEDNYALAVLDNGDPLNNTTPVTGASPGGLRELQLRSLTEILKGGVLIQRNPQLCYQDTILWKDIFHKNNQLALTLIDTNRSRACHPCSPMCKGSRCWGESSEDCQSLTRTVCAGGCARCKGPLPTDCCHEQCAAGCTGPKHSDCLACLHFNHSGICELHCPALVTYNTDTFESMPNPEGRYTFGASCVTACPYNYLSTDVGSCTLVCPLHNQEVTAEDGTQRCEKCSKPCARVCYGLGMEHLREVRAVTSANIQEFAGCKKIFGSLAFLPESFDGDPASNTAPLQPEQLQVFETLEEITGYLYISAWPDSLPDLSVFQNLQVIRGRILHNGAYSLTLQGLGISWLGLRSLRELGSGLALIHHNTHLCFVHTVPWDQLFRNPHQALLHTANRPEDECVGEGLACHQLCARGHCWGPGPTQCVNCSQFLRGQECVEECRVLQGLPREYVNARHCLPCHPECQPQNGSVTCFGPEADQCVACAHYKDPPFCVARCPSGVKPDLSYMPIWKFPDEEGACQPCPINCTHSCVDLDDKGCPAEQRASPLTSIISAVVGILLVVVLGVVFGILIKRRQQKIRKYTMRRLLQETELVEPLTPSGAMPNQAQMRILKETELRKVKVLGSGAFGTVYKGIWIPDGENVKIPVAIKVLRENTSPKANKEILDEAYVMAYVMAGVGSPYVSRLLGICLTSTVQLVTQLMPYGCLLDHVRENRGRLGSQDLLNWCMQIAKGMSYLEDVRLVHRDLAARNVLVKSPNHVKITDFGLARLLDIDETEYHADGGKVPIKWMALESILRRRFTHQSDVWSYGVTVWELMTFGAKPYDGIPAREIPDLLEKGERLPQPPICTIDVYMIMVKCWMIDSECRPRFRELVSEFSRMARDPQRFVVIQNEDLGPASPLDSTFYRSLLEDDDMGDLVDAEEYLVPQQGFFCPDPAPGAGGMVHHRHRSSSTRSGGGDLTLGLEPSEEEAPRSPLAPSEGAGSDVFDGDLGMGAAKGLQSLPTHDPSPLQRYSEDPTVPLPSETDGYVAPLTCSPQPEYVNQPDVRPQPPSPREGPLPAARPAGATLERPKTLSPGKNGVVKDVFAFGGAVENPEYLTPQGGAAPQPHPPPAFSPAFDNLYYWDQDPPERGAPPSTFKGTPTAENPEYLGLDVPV
Outline: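 Engineered NIH 3T3 cells expressing HER2-YVMA treated with compounds 1 h at 37 °C, then formaldehyde-fixed and methanol-permeabilized. pErbB2 Y1196 detected by in-cell infrared immunofluorescence, normalized to GAPDH. IC50 from the normalized curves.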

Sequence of EGFR wild type (EGFR WT) (P00533 25-1210): as the sequence (P00533 25-1210) above

| Structure (SMILES) | pIC50 (EGFR wild type (EGFR WT)) | pIC50 (EGFR) | pIC50 (ErbB2 WT) | pIC50 [1] | pIC50 [2] | IC50 ([1]; Assay 1 IC50 (nM)) [nM] |
| --- | --- | --- | --- | --- | --- | --- |
| CC1(C)CN(c2ncc3ncnc(Nc4ccc(Oc5ccn6ncnc6c5)c(Cl)c4)c3n2)C[C@H]1O [Example 339] | ≤ 5.30 | 5.28 | 7.15 | 7.33 | 6.23 | – |
| Cc1cc(Nc2ncnc3cnc(N4CCN(CC(F)(F)F)CC4)nc23)ccc1Oc1ccc2c(c1)ncn2C [Example 85, N-(3-methyl-4-((1-methyl-1H-benzo[d]imidazol-5-yl)oxy)phenyl)-6-(4-(2,2,2-trifluoroethyl)piperazin-1-yl)pyrimido[5,4-d]pyrimidin-4-amine] | ≤ 5.30 | ≤ 5.00 | 6.14 | 6.69 | 6.89 | – |
| Cc1cc(Nc2ncnc3cnc(N4CC[C@]45CCOC5)nc23)ccc1Oc1ccc2c(c1)ncn2C (single isomer, unassigned) [Example 93b] | ≤ 5.30 | 5.87 | 7.94 | 7.79 | 7.86 | – |
| Cc1cc(Nc2ncnc3cnc(N4C[C@]5(CCOC5)CC4=O)nc23)ccc1Oc1ccc2c(c1)ncn2C [Example 391] | ≤ 5.30 | ≤ 5.00 | 6.53 | 7.03 | 6.84 | – |
| Cc1c(Oc2ccn3ncnc3c2)ccc(Nc2ncnc3cnc(N4CC[C@](C)(O)C4)nc23)c1F [Example 307] | ≤ 5.30 | ≤ 5.00 | 7.27 | 7.55 | 5.94 | – |
| FC(F)[C@H]1CCN1c1ncc2ncnc(Nc3ccc(Oc4ccn5ncnc5c4)c(Cl)c3)c2n1 [Example 410] | ≤ 5.30 | 5.20 | 7.37 | 7.83 | 6.68 | – |
| Cn1cnc2cc(Oc3ccc(Nc4ncnc5cnc(N6C[C@@H]7[C@@H](C#N)[C@@H]7C6)nc45)cc3Cl)ccc21 [Example 393] | ≤ 5.30 | ≤ 5.00 | 6.63 | 7.20 | 7.36 | – |
| Cc1cc(Nc2ncnc3cnc(N4CC5CC(C4)O5)nc23)ccc1Oc1ccn2ncnc2c1 [Example 135, N-(4-([1,2,4]triazolo[1,5-a]pyridin-7-yloxy)-3-methylphenyl)-6-(6-oxa-3-azabicyclo[3.1.1]heptan-3-yl)pyrimido[5,4-d]pyrimidin-4-amine] | ≤ 5.30 | ≤ 5.00 | 7.34 | 7.58 | 6.29 | – |
| OC1(CNc2ncc3ncnc(Nc4ccc(Oc5ccn6ncnc6c5)c(Cl)c4)c3n2)COC1 [Example 326] | ≤ 5.30 | 5.63 | 7.49 | 7.84 | 7.49 | – |
| Cc1cc(Nc2ncnc3cnc(N4C[C@@H]5C[C@H]4C[C@H]5O)nc23)ccc1Oc1ccc2c(c1)ncn2C [Example 471] | ≤ 5.30 | ≤ 5.00 | 7.31 | 8.15 | 7.37 | – |
| Cc1cc(Nc2ncnc3cnc(N4C[C@@H]5[C@@H](C#N)[C@@H]5C4)nc23)ccc1Oc1ccc2c(c1)ncn2C [Example 401] | ≤ 5.30 | ≤ 5.00 | 6.79 | 6.83 | 7.61 | – |
| Cc1cc(Nc2ncnc3cnc(N4CC5(CCN(C)C5=O)C4)nc23)ccc1Oc1ccc2c(c1)ncn2C [Example 425] | ≤ 5.30 | ≤ 5.00 | 6.31 | 7.17 | 6.73 | – |
| Cc1cc(Nc2ncnc3cnc(O[C@H]4C[C@@H](F)CN(C)C4)nc23)ccc1Oc1ccc2c(c1)ncn2C [Example 302] | ≤ 5.30 | ≤ 5.00 | 6.41 | 7.18 | 6.85 | – |
| Cc1cc(Nc2ncnc3cnc(N4CC5CCC(C4)O5)nc23)ccc1Oc1ccc2c(c1)ncn2C [Example 256] | ≤ 5.30 | ≤ 5.00 | 7.14 | 7.31 | 7.91 | – |
| Clc1cc(Nc2ncnc3cnc(N4CCN5CCOC[C@H]5C4)nc23)ccc1Oc1ccn2ncnc2c1 [Example 430] | ≤ 5.30 | 5.39 | 7.59 | 8.07 | 7.50 | – |
| Cc1cc(Nc2ncnc3cnc(N4CCP(C)(=O)CC4)nc23)ccc1Oc1ccc2c(c1)ncn2C [Example 463] | ≤ 5.30 | ≤ 5.00 | 6.56 | 7.15 | 6.18 | – |
| Cn1cnc2cc(Oc3ccc(Nc4ncnc5cnc(N6C[C@@H]7CC[C@H]6CO7)nc45)cc3Cl)ccc21 [Example 446] | ≤ 5.30 | ≤ 5.00 | 6.87 | 7.68 | 6.91 | – |
| Cc1cc(Nc2ncnc3cnc(NC4CCCC4)nc23)ccc1Oc1ccc2c(c1)ncn2C [Example 273] | ≤ 5.30 | ≤ 5.00 | 6.70 | 7.02 | 7.47 | – |
| Cc1cc(Nc2ncnc3cnc(N4CCC[C@@]5(CCO5)C4)nc23)ccc1Oc1ccc2c(c1)ncn2C [Example 386] | ≤ 5.30 | 5.16 | 7.23 | 7.09 | 7.78 | – |
| Cc1cc(Nc2ncnc3cnc(O[C@H]4CCN(C)C[C@H]4F)nc23)ccc1Oc1ccc2c(c1)ncn2C [Example 286] | ≤ 5.30 | ≤ 5.00 | 6.33 | 7.01 | 7.09 | – |
| Cc1cc(Nc2ncnc3cnc(N4C[C@H]5C[C@@H]4C[C@H]5O)nc23)ccc1Oc1ccc2c(c1)ncn2C [Example 459] | ≤ 5.30 | ≤ 5.00 | 7.44 | 7.73 | 7.35 | – |
| Cc1cc(Nc2ncnc3cnc(N(C)CCC(C)(C)O)nc23)ccc1Oc1ccc2c(c1)ncn2C [Example 102, 2-methyl-4-(methyl(8-((3-methyl-4-((1-methyl-1H-benzo[d]imidazol-5-yl)oxy)phenyl)amino)pyrimido[5,4-d]pyrimidin-2-yl)amino)butan-2-ol] | ≤ 5.30 | 5.56 | 7.68 | 7.62 | 8.03 | – |
| CON(C)CCNc1ncc2ncnc(Nc3ccc(Oc4ccc5c(c4)ncn5C)c(C)c3)c2n1 [Example 219, N2-(2-(methoxy(methyl)amino)ethyl)-N8-(3-methyl-4-((1-methyl-1H-benzo[d]imidazol-5-yl)oxy)phenyl)pyrimido[5,4-d]pyrimidine-2,8-diamine] | ≤ 5.30 | 5.68 | 7.56 | 7.83 | 8.21 | – |
| Cn1cnc2cc(Oc3ccc(Nc4ncnc5cnc(N6CC[C@H](C#N)C6)nc45)cc3Cl)ccc21 [Example 152, (S)-1-(8-((3-chloro-4-((1-methyl-1H-benzo[d]imidazol-5-yl)oxy)phenyl)amino)pyrimido[5,4-d]pyrimidin-2-yl)pyrrolidine-3-carbonitrile 2,2,2-trifluoroacetate] | ≤ 5.30 | ≤ 5.00 | 7.10 | – | 7.50 | 36.7 |
| Cc1cc(Nc2ncnc3cnc(N4CCCO4)nc23)ccc1Oc1cc(F)c2c(c1)ncn2C [Example 155, N-(4-((7-fluoro-1-methyl-1H-benzo[d]imidazol-5-yl)oxy)-3-methylphenyl)-6-(isoxazolidin-2-yl)pyrimido[5,4-d]pyrimidin-4-amine] | ≤ 5.30 | 5.37 | 7.28 | 7.65 | 8.26 | – |

From patent US11834453B2, “Substituted pyrimido[5,4-d]pyrimidines as HER2 inhibitors” (Array BioPharma Inc., priority 2020, dated 2023)
